Results as given in ChEMBL document CHEMBL4308854, “Novel indole-thiazolidinone conjugates: Design, synthesis and whole-cell phenotypic evaluation as a novel class of antimicrobial agents” (Eur J Med Chem, 2018).
≈ marks a conversion by molar mass, not a printed value. Calls of active or inactive are those of the source. The calls are words filed in the database; no cut-off is given here.

What was measured:
Assay type in all cases: functional
Pseudomonas aeruginosa [1] = experiment: Antibacterial activity against Pseudomonas aeruginosa RCMB 010043 assessed as diameter of zone inhibition after 24 hrs by agar well diffusion assay
Pseudomonas aeruginosa [2] = experiment: Antibacterial activity against Pseudomonas aeruginosa RCMB 010043 after 24 hrs by serial dilution method; conditions: RCMB 010043, 24 h
Staphylococcus aureus [3] = experiment: Antibacterial activity against Staphylococcus aureus RCMB 010028 assessed as diameter of zone inhibition after 24 hrs by agar well diffusion assay
Staphylococcus aureus [4] = experiment: Antibacterial activity against Staphylococcus aureus RCMB 010028 after 24 hrs by serial dilution method; conditions: RCMB 010028, 24 h
Candida albicans [5] = experiment: Antifungal activity against Candida albicans RCMB 05036 assessed as diameter of zone inhibition after 48 hrs by agar well diffusion assay
Aspergillus fumigatus [6] = experiment: Antifungal activity against Aspergillus fumigatus RCMB 02568 after 24 hrs by serial dilution method; conditions: RCMB 02568, 24 h
Aspergillus fumigatus [7] = experiment: Antifungal activity against Aspergillus fumigatus RCMB 02568 assessed as diameter of zone inhibition after 48 hrs by agar well diffusion assay
Candida albicans [8] = experiment: Antifungal activity against Candida albicans RCMB 05036 after 24 hrs by serial dilution method; conditions: RCMB 05036, 24 h
Escherichia coli [9] = experiment: Antibacterial activity against Escherichia coli RCMB 010052 after 24 hrs by serial dilution method; conditions: RCMB 010052, 24 h
[10] = test system: Mycobacterium tuberculosis; experiment: Antitubercular activity against Mycobacterium tuberculosis RCMB 010126 clinical isolate after 4 days by microplate alamar blue assay; conditions: for MIC: Mycobacterium tuberculosis, RCMB 010126, 96 h
Escherichia coli [11] = experiment: Antibacterial activity against Escherichia coli RCMB 010052 assessed as diameter of zone inhibition after 24 hrs by agar well diffusion assay
Escherichia coli [12] = experiment: Potency index, ratio of ciprofloxacin MIC to compound MIC for Escherichia coli RCMB 010052
Pseudomonas aeruginosa [13] = experiment: Potency index, ratio of ciprofloxacin MIC to compound MIC for Pseudomonas aeruginosa RCMB 010043

Row | SMILES | diameter of the inhibition zone (DIZ) (Pseudomonas aeruginosa [1]) | MIC (Pseudomonas aeruginosa [2]) [µg/mL] | diameter of the inhibition zone (DIZ) (Staphylococcus aureus [3]) | MIC (Staphylococcus aureus [4]) [µg/mL] | diameter of the inhibition zone (DIZ) (Candida albicans [5]) | MIC (Aspergillus fumigatus [6]) [µg/mL] | diameter of the inhibition zone (DIZ) (Aspergillus fumigatus [7]) | MIC (Candida albicans [8]) [µg/mL] | MIC (Escherichia coli [9]) [µg/mL] | inhibition (INH) [10] [%] | MIC [10] [µg/mL] | diameter of the inhibition zone (DIZ) (Escherichia coli [11]) | inhibition [10] | Ratio (Escherichia coli [12]) | Ratio (Pseudomonas aeruginosa [13])
1 | CC(=O)c1sc(/N=C2\NC(=O)/C(=C/c3c[nH]c4ccccc34)S2)nc1C | 18.5 mm | 7.81 (≈ 20.4 µM) | 18.9 mm | 7.81 (≈ 20.4 µM) | 20.9 mm | 3.9 (≈ 10.2 µM) | 20.3 mm | 1.95 (≈ 5.1 µM) | 1.95 (≈ 5.1 µM) | 52.41 | 3.12 (≈ 8.16 µM) | 21.3 mm |  |  | 
2 | CCOC(=O)c1sc(/N=C2\NC(=O)/C(=C/c3cn(Cc4ccccc4)c4ccccc34)S2)nc1C | inactive |  | inactive |  | inactive |  | inactive |  |  |  |  | inactive | inactive |  | 
3 | CC(=O)c1sc(/N=C2\NC(=O)/C(=C3/C(=O)Nc4ccc(Br)cc43)S2)nc1C | 18.6 mm |  | 18.5 mm |  | 18.8 mm |  | 17.6 mm |  |  | 43.21 | 12.5 (≈ 26.9 µM) | 20.4 mm |  |  | 
4 | CC(=O)c1sc(/N=C2\NC(=O)/C(=C3/C(=O)Nc4ccc(OC(F)(F)F)cc43)S2)nc1C | 13.9 mm |  | 14.3 mm |  | 16.2 mm |  | 15.6 mm |  |  | 41.58 | 12.5 (≈ 26.6 µM) | 14.2 mm |  |  | 
5 | CCOC(=O)c1sc(/N=C2\NC(=O)/C(=C3/C(=O)N(C)c4ccc(Cl)cc43)S2)nc1C | 21.5 mm | 1.95 (≈ 4.21 µM) | 21.4 mm | 1.95 (≈ 4.21 µM) | 21.3 mm | 3.9 (≈ 8.42 µM) | 20.8 mm | 1.95 (≈ 4.21 µM) | 0.98 (≈ 2.12 µM) | 68.31 | 0.78 (≈ 1.68 µM) | 22.3 mm |  | 2 | 2
6 | CCOC(=O)c1sc(/N=C2\NC(=O)/C(=C3/C(=O)Nc4ccc(Br)cc43)S2)nc1C | 19.4 mm | 3.9 (≈ 7.9 µM) | 20.1 mm | 3.9 (≈ 7.9 µM) | 21.3 mm | 3.9 (≈ 7.9 µM) | 20.6 mm | 1.95 (≈ 3.95 µM) | 1.95 (≈ 3.95 µM) | 86.31 | 1.56 (≈ 3.16 µM) | 21.1 mm |  |  | 
7 | NNC(=O)c1ccncc1 [ISONIAZID] |  |  |  |  |  |  |  |  |  |  | 0.78 (≈ 5.69 µM) |  |  |  | 
8 | C[C@@H]1[C@H](O)[C@@H](C)/C=C/C=C/C=C/C=C/C=C/C=C/C=C/[C@H](O[C@@H]2O[C@H](C)[C@@H](O)[C@H](N)[C@@H]2O)C[C@@H]2O[C@](O)(C[C@@H](O)C[C@@H](O)[C@H](O)CC[C@@H](O)C[C@@H](O)CC(=O)O[C@H]1C)C[C@H](O)[C@H]2C(=O)O [AMPHOTERICIN B] |  |  |  |  | 25.4 mm | 1.95 (≈ 2.11 µM) | 23.7 mm | 0.98 (≈ 1.06 µM) |  |  |  |  |  |  | 
9 | CC(=O)c1sc(/N=C2\NC(=O)/C(=C/c3cn(Cc4ccccc4)c4ccccc34)S2)nc1C | 17.3 mm | 15.6 (≈ 33.1 µM) | 20.6 mm | 1.95 (≈ 4.13 µM) | 16.2 mm | 3.9 (≈ 8.25 µM) | 20.3 mm | 31.2 (≈ 66.1 µM) | 3.9 (≈ 8.25 µM) | 56.35 | 1.56 (≈ 3.3 µM) | 20.3 mm |  |  | 
10 | COc1ccc2c(c1)/C(=C1/S/C(=N/c3nc(C)c(C(C)=O)s3)NC1=O)C(=O)N2 | 21.4 mm | 1.95 (≈ 4.7 µM) | 21.7 mm | 1.95 (≈ 4.7 µM) | 21.3 mm | 1.95 (≈ 4.7 µM) | 20.8 mm | 1.95 (≈ 4.7 µM) | 1.95 (≈ 4.7 µM) | 64.35 | 1.56 (≈ 3.76 µM) | 22.4 mm |  |  | 2
11 | CCOC(=O)c1sc(/N=C2\NC(=O)/C(=C3/C(=O)Nc4ccc(F)cc43)S2)nc1C | 20.2 mm | 3.9 (≈ 9.02 µM) | 20.5 mm | 3.9 (≈ 9.02 µM) | 22.1 mm | 1.95 (≈ 4.51 µM) | 21.3 mm | 1.95 (≈ 4.51 µM) | 1.95 (≈ 4.51 µM) | 62.15 | 1.56 (≈ 3.61 µM) | 21.5 mm |  |  | 
12 | CC(=O)c1sc(/N=C2\NC(=O)/C(=C3/C(=O)Nc4ccccc43)S2)nc1C | 19.9 mm | 3.9 (≈ 10.1 µM) | 20.3 mm | 3.9 (≈ 10.1 µM) | 22.7 mm | 1.95 (≈ 5.07 µM) | 21.5 mm | 0.98 (≈ 2.55 µM) | 0.98 (≈ 2.55 µM) | 63.24 | 1.56 (≈ 4.06 µM) | 22.8 mm |  | 2 | 
13 | CCOC(=O)c1sc(/N=C2\NC(=O)/C(=C/c3c[nH]c4ccccc34)S2)nc1C | 18.5 mm | 7.81 (≈ 18.9 µM) | 18.9 mm | 3.9 (≈ 9.45 µM) | 20.9 mm | 3.9 (≈ 9.45 µM) | 20.3 mm | 1.95 (≈ 4.73 µM) | 1.95 (≈ 4.73 µM) | 46.35 | 6.24 (≈ 15.1 µM) | 21.3 mm |  |  | 
14 | CC(=O)c1sc(/N=C2\NC(=O)/C(=C3/C(=O)N(Cc4ccccc4)c4ccccc43)S2)nc1C | 20.3 mm | 3.9 (≈ 8.22 µM) | 21.2 mm | 1.95 (≈ 4.11 µM) | 22.5 mm | 1.95 (≈ 4.11 µM) | 21.7 mm | 0.98 (≈ 2.07 µM) | 0.98 (≈ 2.07 µM) | 58.34 | 1.56 (≈ 3.29 µM) | 23.4 mm |  | 2 | 
15 | CC(=O)c1sc(/N=C2\NC(=O)/C(=C/c3cn(C)c4ccccc34)S2)nc1C | 14.2 mm |  | 15.3 mm |  | 16.9 mm |  | 16.2 mm |  |  | 34.32 |  | 15.9 mm |  |  | 
16 | CCOC(=O)c1sc(/N=C2\NC(=O)/C(=C/c3cn(C)c4ccccc34)S2)nc1C | inactive |  | inactive |  | inactive |  | inactive |  |  |  |  | inactive | inactive |  | 
17 | CC(=O)c1sc(/N=C2\NC(=O)/C(=C3/C(=O)Nc4ccc(F)cc43)S2)nc1C | 19.1 mm |  | 18.6 mm |  | 19.1 mm |  | 18.1 mm |  |  | 43.26 | 12.5 (≈ 31 µM) | 20.6 mm |  |  | 
